From PMC11054433, “Nature-Inspired 1-Phenylpyrrolo[2,1-a]isoquinoline Scaffold for Novel Antiproliferative Agents Circumventing P-Glycoprotein-Dependent Multidrug Resistance” (Pharmaceuticals, 2024)
“And” between values parts separate entries of the source, which are not always exact repeats. Equal values may be shown once. Read-outs that look alike come from different tables or passages of the source.

Columns and labels:
[1] = test system: RD (rhabdomyosarcoma) cells; test: MTT antiproliferative (cytotoxicity) assay, RD cells; assay type: cell-based, Human; conditions: Homo sapiens, Rhabdomyosarcoma cell, 72 h, mean (SD), triplicate, n.a. = not active at 100 μM, >100 = less than 60% inhibition at 100 μM
Description: (§1) The newly synthesized 1-Ph-DHPIQs, along with the previously reported derivatives 4a, 4c, 6a and 6c, with camptothecin and doxorubicin as positive controls, were tested at the maximum concentration of 100 μM for their antiproliferative activity, using an MTT assay on RD, HCT116, HeLa and A549 cancer cell lines. Compounds showing more than 50% inhibition were tested at lower scalar concentrations, and IC50 values were calculated by interpolation of the dose-response curves (Table 1). […]
(§2) The antiproliferative activity of the newly synthesized compounds, along with some previously reported analogs, and camptothecin and doxorubicin as positive controls was determined by the MTT (3-(4,5-dimethylthiazol-2-yl)-2,5-diphenyltetrazolium bromide) assay. The cells were seeded at a concentration of 1 × 10 ^4 cells/200 μL in a 96-well plate and cultured at 37 °C in a humidified atmosphere with 5% CO2. After 24 h of incubation, scalar concentrations of each test compound (100 to 1.56 μmol·L^−1) were added to the cancer cell culture and the cells were then cultured under the same conditions for 72 hr. Each concentration of the test compound was assayed in triplicate. […] Wells with the 0.1% v/v DMSO were used as controls. After incubation, 20 μL of MTT (5 mg·mL^−1) was added to each well and the plates were incubated for a further 2 h. Next, media were removed from the plates, and 100 μL of DMSO was added to each well to dissolve the formed formazan crystals. Using a flatbed analyzer (Victor^3, PerkinElmer, Waltham, MA, USA), the optical density was determined at 530 nm, minus the measured background absorbance at 620 nm. The concentration value, which causes 50% inhibition of cell population growth (IC50), was determined from the dose-dependent curves using the OriginPro 9.0 software.

[2] = test system: HCT116 (colon cancer) cells; test: MTT antiproliferative (cytotoxicity) assay, HCT116 cells; assay type: cell-based, Human; conditions: Homo sapiens, HCT-116, 72 h, mean (SD), triplicate, n.a. = not active at 100 μM, >100 = less than 60% inhibition at 100 μM
Description: as §1, §2

[3] = test system: HeLa (adenocarcinoma of the cervix uterus) cells; test: MTT antiproliferative (cytotoxicity) assay, HeLa cells; assay type: cell-based, Human; conditions: Homo sapiens, HeLa, 72 h, mean (SD), triplicate, n.a. = not active at 100 μM, >100 = less than 60% inhibition at 100 μM
Description: as §1, §2

[4] = test system: A549 (lung adenocarcinoma) cells; test: MTT antiproliferative (cytotoxicity) assay, A549 cells; assay type: cell-based, Human; conditions: Homo sapiens, A549, 72 h, mean (SD), triplicate, n.a. = not active at 100 μM, >100 = less than 60% inhibition at 100 μM
Description: The antiproliferative activity of the newly synthesized compounds, along with some previously reported analogs, and camptothecin and doxorubicin as positive controls was determined by the MTT (3-(4,5-dimethylthiazol-2-yl)-2,5-diphenyltetrazolium bromide) assay. […] Each concentration of the test compound was assayed in triplicate. […] Wells with the 0.1% v/v DMSO were used as controls. After incubation, 20 μL of MTT (5 mg·mL^−1) was added to each well and the plates were incubated for a further 2 h. Next, media were removed from the plates, and 100 μL of DMSO was added to each well to dissolve the formed formazan crystals. Using a flatbed analyzer (Victor^3, PerkinElmer, Waltham, MA, USA), the optical density was determined at 530 nm, minus the measured background absorbance at 620 nm.

[5] = Kinetic solubility in PBS by RP-HPLC; assay type: physicochemical; conditions: phosphate buffered saline, 25 °C, kinetic from dmso stock
Description: Sample solution at 200 μM in PBS (50 mM, pH 7.4, KCl 0.15 M) from a 10 mM stock solution in DMSO was incubated at room temperature (25 ± 1 °C) for 2 h, following shaking of the suspension on an orbital shaker at 250 rpm, and then separated by […]. Immediately after the filtration step, 100 µL of filtrate was transferred into 100 µL of 1:1 (v/v) mixture of DMSO and PBS (50 mM, pH 7.4, KCl 0.15 M), to avoid precipitation from the saturated solution and analyzed by HPLC. The peak area was plotted against a calibration curve of the tested compound in MeOH [21]. Analytical conditions were as follows. Mobile Phase: MeOH/ammonium formate 20 mM pH 4.7 (70:30, 75:25); MeOH 0.1% TFA/H2O 0.1% TFA (70:30, 60:40); stationary phase: Phenomenex, Kinetex 5 μ, C18, 100 Å (150 × 4.6 mm); flux: 1 mL/min; injection: 10 μL, 265, 290, 320 nm wavelength. HPLC analyses were performed on an Agilent HPLC 1260 Infinity Series Integrated System (Agilent Technologies, Milan, Italy).

[6] = Lipophilicity by RP-HPLC (polycratic capacity factor); assay type: physicochemical; conditions: capacity factor extrapolated to 100% aqueous mobile phase, aqueous component pH 4.7
Description: To quantitate the effect of hydrophobicity on the biological activity of the examined compounds, a relative lipophilicity scale was determined by RP-HPLC [20]. The polycratic capacity factor (log k′w) for each compound in Table 2 was experimentally determined (details in the experimental section) and compared with 1-octanol–water partition coefficient calculated (Clog P) with ACDLabs software (release 10.0; Advanced Chemistry Development, Inc., Toronto, ON, Canada). Log k′w values are quite well correlated with Clog Ps for the whole series (r^2 = 0.791). However, omitting from the regression the two Mannich bases 8b and 8c, which, due to their basicity (pKas about 6.9, estimated by ACDLabs software), should be predominantly in the protonated forms at pH 4.7 (i.e., the pH of the aqueous component of the mobile phase in RP-HPLC), the correlation slightly improves (r^2 = 0.859), providing a linear equation with a slope equal to +0.8 and an intercept of about −0.1.
The lipophilicity parameters were determined by an RP-HPLC technique. Methanol solution of DHPIQ derivatives (1 mg/mL) were analyzed by an Agilent 1260 infinite HPLC system (Agilent Technologies, Milan, Italy) equipped with a diode array detector (DAD), and a Phenomenex, Kinetex 5 μ, C18, 100 Å (150 × 4.6 mm), and eluted with different percentage of mobile phase composition (0.05 increments of MeOH volume fractions in 20 mM ammonium formate buffer at pH 4.7 or water 0.1% v/v TFA, with φ ranging between 0.85 and 0.30). The chromatographic measurements were carried out at 25 ± 1 °C at a flow rate of 1 mL·min^−1 and at 265, 290, 320 nm wavelengths. The log of capacity factors (log k′ = log (tR − t0)/t0) of each compound at different mobile phase compositions was calculated; tR represents the retention time of the solute and t0 is the column dead time, measured as the elution time of a KNO3 solution in MeOH. For each compound, the log k′ values increased linearly with decreasing MeOH volume fraction. The logarithms of the capacity factor extrapolated to 100% aqueous mobile phase (log k′w) were calculated from the linear regressions on at least five data points (r^2 > 0.9984).

P-glycoprotein (P-gp) = P-glycoprotein (P-gp) (Homo sapiens, UniProt P08183); test: Calcein-AM transport inhibition in MDCK-MDR1 cells overexpressing P-gp; conditions: for IC50: calcein-AM, mean (SD), at least two independent experiments in triplicate; for P-gp/MRP1 selectivity (toward P-gp): ratio of MRP1 and P-gp inhibition potency
Description: (§3) The P-gp inhibitory potency of eight DHPIQs was evaluated by measuring the transport inhibition of calcein-AM, a profluorescent P-gp substrate, in the MDCK-MDR1 cell line overexpressing P-gp. Moreover, to evaluate the MRP1 inhibitor activity, the same compounds were screened in MDCK-MRP1 cells overexpressing MRP1.
(§4) According to previously described assays [9], MDCK-MDR1 and MDCK-MRP1 cell lines (50,000 cells per well) were seeded into a black CulturePlate 96-well plate with 100 μL medium and allowed to become confluent overnight. […] Saline buffer (100 μL) was added to each well, and the plate was read by a PerkinElmer Victor3 spectrofluorimeter at excitation and emission wavelengths of 485 nm and 535 nm, respectively. In these experimental conditions, calcein cell accumulation in the absence and in the presence of the test compound was evaluated, and the fluorescence basal level was estimated by untreated cells. In the treated wells, the increase of fluorescence with respect to basal level was measured. IC50 values were determined by interpolating the curve of fluorescence increase percentage versus log [conc.].

[7] = biological target: multidrug-resistance-associated protein-1 (MRP1) (Homo sapiens, UniProt P33527); test: Calcein-AM transport inhibition in MDCK-MRP1 cells overexpressing MRP1
Description: as §3, §4

[8] = biological target: T1, human serum albumin (HSA) (Homo sapiens, UniProt P02768); test: Binding affinity to immobilized HSA by surface plasmon resonance (SPR)
Description: (§5) By plotting the response at equilibrium, the dissociation constant (KD) value was determined for each test compound.
(§6) Fatty acid-free HSA (A3782 from Merck, KGaA Sigma-Aldrich, Darmstadt, Germany) was applied to functionalize the surface of a COOH V sensor chip (Pall FortèBio, Fremont Boulevard, CA, USA), by using amine coupling (EDC/NHS). HSA aqueous stock solution was diluted at the final concentration of 50 μg·mL^−1 in 10 mM sodium acetate buffer (pH 5.0), and immobilization in peripheral flow cells 1 and 3 (unmodified dextran surface in middle flow cell 2 used as a reference) at a final apparent level of about 5000 RU was achieved by applying the following protocol: injection of EDC/NHS (freshly mixed 0.4 M EDC and 0.1 M NHS) 1:1 v/v at a flow of 25 μL·min^−1 for 4 min; injection of HSA solution at a flow of 25 μL·min^−1 for 8 min; capping on unreacted activated carboxyl groups by injection of 1 M ethanolamine solution (pH 9) at a flow of 25 μL·min^−1 for 8 min. The functionalized surface was then treated with repeated injection of 4 M NaCl, as a regenerating reagent, and conditioned overnight prior to use with pH 7.4 PBS (10 mM NaH2PO4 and 150 mM NaCl) as a running buffer. Each cycle (without the need of regeneration) for binding assay to HSA was carried out in PBS/4% v/v DMSO and consisted of a run buffer injection (60 s), injection of analyte single concentration for 120 s (ranging from 1 to 200 μM) at a flow 20 μL·min^−1, and a dissociation phase for 150 s (flow 20 μL·min^−1). Each measurement was performed at least in triplicate and analyzed by using QDAT software, vers 2.2.0.7 (non-linear regression analysis of 1:1 stoichiometric reversible binding model), and double referencing.

[9] = Hydrolytic stability monitored by RP-HPLC; assay type: physicochemical; conditions: 0.15 M KCl; for Hydrolytic stability at pH 2: 0.01 M HClaq, pH 2, 25 °C; for Hydrolytic stability at pH 7.4: 50 mM PBS, pH 7.4, 25 °C
From the text: In particular, the transformation of the DHPIQ-2-aldehyde via Mannich reaction (8b,c) opens the road to future developments of new water-soluble antiproliferative DHPIQ derivatives endowed with the ability to inhibit P-gp and reverse MDR.

[10] = biological target: T1, human serum albumin (HSA); conditions: 10 μM, pH 7.4
Description: as §5, §6

[11] = aqueous buffer, PBS (50 mM, pH 7.4, 0.15 M KCl) at 25 ± 1 °C, read-out: S (solubility)

Chain of P-glycoprotein (P-gp) (P08183 whole entry): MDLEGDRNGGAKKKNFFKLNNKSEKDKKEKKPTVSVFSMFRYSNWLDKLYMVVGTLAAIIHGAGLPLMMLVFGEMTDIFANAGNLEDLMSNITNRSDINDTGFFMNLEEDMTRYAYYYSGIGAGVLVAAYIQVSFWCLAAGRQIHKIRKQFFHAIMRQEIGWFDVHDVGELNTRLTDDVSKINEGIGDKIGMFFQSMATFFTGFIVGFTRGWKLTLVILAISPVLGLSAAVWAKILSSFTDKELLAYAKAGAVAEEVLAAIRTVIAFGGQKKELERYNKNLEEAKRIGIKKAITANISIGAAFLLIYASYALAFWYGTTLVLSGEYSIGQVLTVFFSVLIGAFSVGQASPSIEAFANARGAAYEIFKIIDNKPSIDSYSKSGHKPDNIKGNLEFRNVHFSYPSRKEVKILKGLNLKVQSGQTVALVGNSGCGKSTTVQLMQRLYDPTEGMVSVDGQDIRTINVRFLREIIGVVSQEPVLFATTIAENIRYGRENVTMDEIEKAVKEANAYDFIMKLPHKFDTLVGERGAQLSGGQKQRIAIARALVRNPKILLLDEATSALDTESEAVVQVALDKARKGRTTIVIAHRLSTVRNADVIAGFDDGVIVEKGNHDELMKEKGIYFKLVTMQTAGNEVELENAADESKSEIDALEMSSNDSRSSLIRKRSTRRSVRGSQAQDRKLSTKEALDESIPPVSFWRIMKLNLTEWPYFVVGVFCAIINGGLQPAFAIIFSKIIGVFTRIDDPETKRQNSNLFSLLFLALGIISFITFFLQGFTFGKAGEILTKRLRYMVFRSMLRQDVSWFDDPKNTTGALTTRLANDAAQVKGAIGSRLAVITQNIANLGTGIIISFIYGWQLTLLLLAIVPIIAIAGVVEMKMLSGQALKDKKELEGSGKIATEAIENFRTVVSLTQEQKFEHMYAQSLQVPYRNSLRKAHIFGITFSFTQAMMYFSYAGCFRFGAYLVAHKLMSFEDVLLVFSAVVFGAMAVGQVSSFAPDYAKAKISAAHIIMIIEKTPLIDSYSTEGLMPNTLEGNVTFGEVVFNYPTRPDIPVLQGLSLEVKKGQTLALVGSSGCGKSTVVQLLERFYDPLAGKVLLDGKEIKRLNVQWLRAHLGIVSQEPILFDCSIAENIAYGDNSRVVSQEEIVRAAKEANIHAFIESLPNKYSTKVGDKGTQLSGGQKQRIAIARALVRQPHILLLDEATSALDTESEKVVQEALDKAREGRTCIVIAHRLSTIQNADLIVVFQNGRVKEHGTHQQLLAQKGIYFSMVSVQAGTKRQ
Chain of multidrug-resistance-associated protein-1 (MRP1) (P33527 whole entry): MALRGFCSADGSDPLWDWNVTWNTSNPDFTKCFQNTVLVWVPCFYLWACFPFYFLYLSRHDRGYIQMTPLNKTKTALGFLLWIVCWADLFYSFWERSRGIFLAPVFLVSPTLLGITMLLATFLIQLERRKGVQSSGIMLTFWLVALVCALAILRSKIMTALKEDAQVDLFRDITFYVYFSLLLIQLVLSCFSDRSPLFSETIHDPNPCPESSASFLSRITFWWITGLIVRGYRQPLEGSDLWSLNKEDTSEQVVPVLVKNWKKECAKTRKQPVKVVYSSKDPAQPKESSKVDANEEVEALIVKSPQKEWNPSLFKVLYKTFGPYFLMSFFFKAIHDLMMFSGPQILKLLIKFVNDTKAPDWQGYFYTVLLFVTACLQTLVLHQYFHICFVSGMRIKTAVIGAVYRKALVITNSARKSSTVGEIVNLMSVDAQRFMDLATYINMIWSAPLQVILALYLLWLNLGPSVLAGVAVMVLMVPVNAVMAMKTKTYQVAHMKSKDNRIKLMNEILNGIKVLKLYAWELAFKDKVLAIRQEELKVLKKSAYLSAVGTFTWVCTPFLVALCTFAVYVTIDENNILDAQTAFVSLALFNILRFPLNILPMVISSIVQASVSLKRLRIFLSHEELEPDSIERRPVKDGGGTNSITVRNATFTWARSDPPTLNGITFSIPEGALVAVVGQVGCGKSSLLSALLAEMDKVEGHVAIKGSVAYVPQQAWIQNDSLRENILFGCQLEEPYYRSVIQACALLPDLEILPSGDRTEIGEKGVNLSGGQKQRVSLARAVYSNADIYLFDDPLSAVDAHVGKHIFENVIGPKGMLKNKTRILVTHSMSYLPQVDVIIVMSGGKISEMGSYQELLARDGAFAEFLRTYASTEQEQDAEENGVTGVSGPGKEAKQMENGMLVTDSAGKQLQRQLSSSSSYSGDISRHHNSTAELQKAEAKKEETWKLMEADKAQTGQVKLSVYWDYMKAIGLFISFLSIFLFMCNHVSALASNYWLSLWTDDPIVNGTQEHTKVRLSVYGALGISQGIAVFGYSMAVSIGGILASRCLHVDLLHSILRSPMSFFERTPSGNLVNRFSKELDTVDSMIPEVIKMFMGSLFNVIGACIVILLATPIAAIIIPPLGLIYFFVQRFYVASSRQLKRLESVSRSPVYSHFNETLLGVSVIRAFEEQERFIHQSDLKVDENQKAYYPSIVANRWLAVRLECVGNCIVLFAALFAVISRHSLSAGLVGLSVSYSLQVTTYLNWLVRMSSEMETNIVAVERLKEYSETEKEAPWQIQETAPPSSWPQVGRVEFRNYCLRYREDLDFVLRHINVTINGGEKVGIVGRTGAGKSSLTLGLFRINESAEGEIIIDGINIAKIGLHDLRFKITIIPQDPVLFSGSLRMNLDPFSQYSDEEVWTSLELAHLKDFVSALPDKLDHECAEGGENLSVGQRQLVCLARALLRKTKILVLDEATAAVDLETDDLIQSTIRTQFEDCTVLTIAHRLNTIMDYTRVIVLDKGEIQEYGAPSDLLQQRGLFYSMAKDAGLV
T1 sequence (P02768 25-609): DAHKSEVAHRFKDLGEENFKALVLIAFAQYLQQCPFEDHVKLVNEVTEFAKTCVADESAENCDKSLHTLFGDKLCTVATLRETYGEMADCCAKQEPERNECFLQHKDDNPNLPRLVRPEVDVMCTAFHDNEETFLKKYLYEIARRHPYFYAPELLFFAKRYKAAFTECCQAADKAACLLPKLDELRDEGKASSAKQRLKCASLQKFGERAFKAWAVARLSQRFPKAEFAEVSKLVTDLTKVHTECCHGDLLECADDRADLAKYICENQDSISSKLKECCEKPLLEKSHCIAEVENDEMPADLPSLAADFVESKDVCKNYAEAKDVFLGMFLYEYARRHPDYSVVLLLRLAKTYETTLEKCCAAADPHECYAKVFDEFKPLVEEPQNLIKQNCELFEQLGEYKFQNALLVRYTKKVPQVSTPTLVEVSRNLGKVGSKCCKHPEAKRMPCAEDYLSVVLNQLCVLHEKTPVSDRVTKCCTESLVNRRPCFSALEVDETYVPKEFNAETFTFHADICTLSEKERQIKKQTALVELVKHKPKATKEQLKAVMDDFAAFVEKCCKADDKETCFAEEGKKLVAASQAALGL

Row | SMILES | IC50 [1] | IC50 [2] | IC50 [3] | IC50 [4] | solubility at 2 h [5, 11] | Log k′w [6] | IC50 (P-glycoprotein (P-gp); P-gp, IC50, MDCK-MDR1 cells) | IC50 [7] | Kd [8] | melting point | P-gp/MRP1 selectivity (toward P-gp) (P-glycoprotein (P-gp)) | Hydrolytic stability at pH 2 [9] | Hydrolytic stability at pH 7.4 [9] | solubility at 2 h ([5]; pH 7.4, aqueous buffer, ‘practically insoluble’ threshold of US and European Pharmacopoeia, read-out: Solubility category in buffered water solution at neutral pH) | Predicted fraction bound to HSA [10] | IC50 (P-glycoprotein (P-gp); read-out: P-gp, IC50, MDCK-MDR1 cells)
1 | CC[C@@]1(O)C(=O)OCc2c1cc1n(c2=O)Cc2cc3ccccc3nc2-1 [Camptothecin, reference compound] | 16 µM | 12.3 µM | 0.33 µM | 3.32 µM |  |  |  |  |  |  |  |  |  |  |  | 
2 | COc1ccc(-c2c(C=O)cn3c2-c2cc(OC)c(OC)cc2CC3)cc1 [Compound 4b] | 95.2 µM | > 100 µM | > 100 µM | > 100 µM | 19.8 µM | 3.39 | 4.48 µM | 6.42 µM | 1.95 µM |  |  |  |  |  |  | 
3 | COc1cc2c(cc1OC)-c1c(-c3ccc(Cl)cc3)c(C(=O)O)cn1CC2 [Compound 5a, 1-(4-Chlorophenyl)-8,9-dimethoxy-5,6-dihydropyrrolo[2,1-a]isoquinoline-2-carboxylic acid] | > 100 µM | > 100 µM | > 100 µM | > 100 µM |  |  |  |  |  | 210 to 215 °C |  |  |  |  |  | 
4 | CCOc1ccc(-c2c(C(=O)O)cn3c2-c2cc(OCC)c(OCC)cc2CC3)cc1OCC [Compound 5c, 1-(3,4-Diethoxyphenyl)-8,9-diethoxy-5,6-dihydropyrrolo[2,1-a]isoquinoline-2-carboxylic acid] |  |  |  |  | 14.6 µM |  | < 0.5 µM and 0.35 µM | > 100 µM | 5.2 µM |  | more than two orders of magnitude |  |  |  |  | 
5 | COc1cc2c(cc1OC)-c1c(-c3ccc(Cl)cc3)c(C#N)cn1CC2 [Compound 6a] | > 100 µM | > 100 µM | > 100 µM | > 100 µM | 1.42 µM | 4.42 | 5.89 µM | 16.6 µM | 4.6 µM |  |  |  |  |  |  | 
6 | CCOc1ccc(-c2c(C#N)cn3c2-c2cc(OCC)c(OCC)cc2CC3)cc1OCC [Compound 6c] | > 100 µM | > 100 µM | > 100 µM | > 100 µM | 1.06 µM | 5.09 | < 0.5 µM and 0.39 µM | > 100 µM | 1.8 µM |  | more than two orders of magnitude |  |  |  |  | 
7 | CCOc1ccc(-c2c(C#N)c(C)n3c2-c2cc(OCC)c(OCC)cc2CC3)cc1OCC [Compound 6d, 1-(3,4-Diethoxyphenyl)-8,9-diethoxy-3-methyl-5,6-dihydropyrrolo[2,1-a]isoquinoline-2-carbonitrile] | > 100 µM | > 100 µM | > 100 µM | > 100 µM |  |  |  |  |  |  |  |  |  |  |  | 
8 | CCOc1ccc(-c2c(C#N)c(-c3ccccc3)n3c2-c2cc(OCC)c(OCC)cc2CC3)cc1OCC [Compound 6e, 1-(3,4-Diethoxyphenyl)-8,9-diethoxy-3-phenyl-5,6-dihydropyrrolo [2,1-a]isoquinoline-2-carbonitrile] | > 100 µM |  |  |  |  |  |  |  |  | 271 to 273 °C |  |  |  |  |  | 
9 | CCOC(=O)c1cn2c(c1-c1ccc(OCC)c(OCC)c1)-c1cc(OCC)c(OCC)cc1CC2 [Compound 7c, Ethyl 1-(3,4-Diethoxyphenyl)-8,9-diethoxy-5,6-dihydro pyrrolo[2,1-a]isoquinoline-2-carboxylate] |  |  |  |  | 41.7 µM | 5.49 | < 0.5 µM and 0.32 µM | 3.23 µM | 12.1 µM |  |  | stable over 4 h | stable over 4 h |  |  | 
10 | COc1ccc(-c2c(CN3CCOCC3)cn3c2-c2cc(OC)c(OC)cc2CC3)cc1 [Compound 8b, 8,9-Dimethoxy-1-(4-methoxyphenyl)-2-(morpholin-4-ylmethyl)-5,6-dihydropyrrolo[2,1-a]isoquinoline] | 37.7 µM | 56.4 µM | 65.4 µM | 66 µM | 112 µM | 3.86 | < 0.5 µM and 0.36 µM | 1.8 µM | 19.3 µM |  |  | stable over 4 h | stable over 4 h | < 100 µg/mL | less than 40% | 
11 | COc1cccc2c1C(=O)c1c(O)c3c(c(O)c1C2=O)C[C@@](O)(C(=O)CO)C[C@@H]3O[C@H]1C[C@H](N)[C@H](O)[C@H](C)O1 [Doxorubicin, reference compound] | 0.29 µM | 0.14 µM | 0.89 µM | 0.38 µM |  |  |  |  |  |  |  |  |  |  |  | 
12 | COc1cc2c(cc1OC)CN(CCC=C1CCCc3c(OC)cccc31)CC2 [MC18, reference compound] |  |  |  |  |  |  |  |  |  |  |  |  |  |  |  | 1.2 µM
